# Test results published in patent US20050282755A1, “Compositions having antimicrobial activity and uses thereof” (priority 2004, published 2005).
# Non-standard residues stand in square brackets, D forms with d. Residues, ends and D or L forms follow the SMILES beside them. *: point of attachment. d(hArg) = N=C(N)NCCCC[C@@H](N)C(=O)O; Stearoyl = CCCCCCCCCCCCCCCCCC(=O)*; Palmitoyl = CCCCCCCCCCCCCCCC(=O)*; Lauroyl = CCCCCCCCCCCC(=O)*; Hexanoyl = CCCCCC(=O)*
# Legend:
# Format in all cases: cell-based
# [1] = system: Pseudomonas aeruginosa ATCC 27853; experiment: MIC, NCCLS M7-A6 broth microdilution (Table 9, no superscript); settings: ATCC 27853
# Protocol: (§1) Cation-adjusted Mueller Hinton broth was used in the broth microdilution method. In brief, a log-phase bacterial suspension was used to inoculate wells of a 96-well plate so that the final inoculum for each well contained 5×10^5 to 1×10^6 CFU/milliliter. […] Plates were incubated overnight at 37° C. The lowest concentration of peptide that contained no visible growth as evidenced by a lack of turbidity when compared to the control (no peptide) was determined as the MIC. Unless otherwise noted, MIC values listed in Table 9 utilized this method of MIC determination.
# [2] = system: Escherichia coli ATCC 25922; experiment: as above; settings: ATCC 25922
# Protocol: as §1
# [3] = system: Staphylococcus epidermidis ATCC 12228; experiment: as above; settings: ATCC 12228
# Protocol: as §1
# Salmonella dublin (Lane) = experiment: as above
# Protocol: as §1
# [4] = system: Staphylococcus aureus ATCC 29213; experiment: MIC, NCCLS M7-A6 broth microdilution, cation-adjusted Mueller Hinton broth (Table 9, no superscript); settings: ATCC 29213
# Protocol: as §1
SMILES,MIC P. aeruginosa [1],MIC E. coli [2],MIC S. epidermidis [3],MIC S. dublin (Salmonella dublin (Lane)),MIC S. aureus [4]
"CCCCCCCCCCCCCCCCCC(=O)N[C@@H](C(=O)N[C@H](CCCNC(=N)N)C(=O)N[C@@H](C(=O)N[C@H](CO)C(=O)N[C@H](CCCNC(=N)N)C(=O)N[C@@H](C(=O)NCC(=O)N[C@H](CCCNC(=N)N)C(=O)N[C@H](CO)C(=O)N[C@H](CCCNC(=N)N)C(=O)N[C@H](Cc1c[nH]c2ccccc12)C(=O)N[C@H](CCCNC(=N)N)C(=O)N[C@H](CC(=O)O)C(=O)N[C@H](Cc1c[nH]c2ccccc12)C(=O)N[C@H](CO)C(=O)N[C@H](CCCNC(=N)N)C(=O)N[C@H](CC(N)=O)C(=O)N[C@H](Cc1ccccc1)C(=O)N[C@H](CCSC)C(=O)N[C@H](CCCNC(=N)N)C(=O)N[C@H](C)C(=O)N[C@H](C)C(=O)N[C@@H](CCCCNC(C)=O)C(N)=O)[C@H](C)O)C(C)C)[C@H](C)O [Peptide 86, Stearyl-trvsrtgrsrwrdwsrnfmraaK(Ac)-NH2] (Stearoyl-[dT][dR][dV][dS][dR][dT]G[dR][dS][dR][dW][dR][dD][dW][dS][dR][dN][dF][dM][dR][dA][dA]K(Ac)-NH2)",>64 µg/mL,>64 µg/mL,32 µg/mL,,
"CCCCCCCCCCCC(=O)N[C@@H](CCCNC(=N)N)C(=O)N[C@@H](CO)C(=O)N[C@@H](CCCNC(=N)N)C(=O)N[C@@H](Cc1c[nH]c2ccccc12)C(=O)N[C@@H](CCCNC(=N)N)C(=O)N[C@@H](CC(=O)O)C(=O)N[C@H](C(=O)N[C@@H](C)C(=O)N[C@@H](CCCNC(=N)N)C(=O)N[C@@H](CC(N)=O)C(=O)N[C@@H](Cc1ccccc1)C(=O)N[C@@H](CC(C)C)C(N)=O)C(C)C [Peptide 161, Lauryl-RSRWRDVARNFL-NH2] (Lauroyl-RSRWRDVARNFL-NH2)",>64 µg/mL,16 µg/mL,4 µg/mL,>64 µg/mL,8 µg/mL
"CCCCCCCCCCCC(=O)N[C@H](CCCCNC(=N)N)C(=O)N[C@H](CO)C(=O)N[C@H](CCCCNC(=N)N)C(=O)N[C@H](Cc1c[nH]c2ccccc12)C(=O)N[C@H](CCCCNC(=N)N)C(=O)N[C@H](CC(=O)O)C(=O)N[C@@H](C(=O)N[C@H](C)C(=O)N[C@H](CCCCNC(=N)N)C(=O)N[C@H](CC(N)=O)C(=O)N[C@H](Cc1ccccc1)C(=O)N[C@H](CCSC)C(=O)N[C@H](CCCCNC(=N)N)C(N)=O)C(C)C [Peptide 159, Lauryl-xsxwxdvaxnfmx-NH2 x = D-homoarginine] (Lauroyl-[d(hArg)][dS][d(hArg)][dW][d(hArg)][dD][dV][dA][d(hArg)][dN][dF][dM][d(hArg)]-NH2)",32 µg/mL,16 µg/mL,8 µg/mL,64 µg/mL,8 µg/mL
"CCCCCCCCCCCCCCCCCC(=O)N[C@@H](C(=O)N[C@H](CCCNC(=N)N)C(=O)N[C@@H](C(=O)N[C@H](CO)C(=O)N[C@H](CCCNC(=N)N)C(=O)N[C@@H](C(=O)NCC(=O)N[C@H](CCCNC(=N)N)C(=O)N[C@H](CO)C(=O)N[C@H](CCCNC(=N)N)C(=O)N[C@H](Cc1c[nH]c2ccccc12)C(=O)N[C@H](CCCNC(=N)N)C(=O)N[C@H](CC(=O)O)C(=O)N[C@H](Cc1c[nH]c2ccccc12)C(=O)N[C@H](CO)C(=O)N[C@H](CCCNC(=N)N)C(=O)N[C@H](CC(N)=O)C(=O)N[C@H](Cc1ccccc1)C(=O)N[C@H](CCSC)C(=O)N[C@H](CCCNC(=N)N)C(=O)N[C@H](C)C(=O)N[C@H](C)C(=O)N[C@@H](CCCCN)C(N)=O)[C@H](C)O)C(C)C)[C@H](C)O [Peptide 81, Stearyl-trvsrtgrsrwrdwsrnfmraaK-NH2] (Stearoyl-[dT][dR][dV][dS][dR][dT]G[dR][dS][dR][dW][dR][dD][dW][dS][dR][dN][dF][dM][dR][dA][dA]K-NH2)",>64 µg/mL,64 µg/mL,64 µg/mL,32 µg/mL,64 µg/mL
"CCCCCCCCCCCCCCCC(=O)N[C@H](CCCNC(=N)N)C(=O)N[C@H](CO)C(=O)N[C@H](CCCNC(=N)N)C(=O)N[C@H](Cc1c[nH]c2ccccc12)C(=O)N[C@H](CCCNC(=N)N)C(=O)N[C@H](CC(=O)O)C(=O)N[C@@H](C(=O)N[C@H](C)C(=O)N[C@H](CCCNC(=N)N)C(=O)N[C@H](CC(N)=O)C(=O)N[C@H](Cc1ccccc1)C(=O)N[C@H](CC(C)C)C(=O)N[C@H](CCCNC(=N)N)C(N)=O)C(C)C [Peptide 191, Palmitoyl-rsrwrdvarnflr-NH2] (Palmitoyl-[dR][dS][dR][dW][dR][dD][dV][dA][dR][dN][dF][dL][dR]-NH2)",>64 µg/mL,64 µg/mL,4 µg/mL,8 µg/mL,64 µg/mL
"CCCCCCCCCCCC(=O)N[C@H](C)C(=O)N[C@H](CO)C(=O)N[C@H](CCCNC(=N)N)C(=O)N[C@H](Cc1c[nH]c2ccccc12)C(=O)N[C@H](CCCNC(=N)N)C(=O)N[C@H](CC(=O)O)C(=O)N[C@@H](C(=O)N[C@H](C)C(=O)N[C@H](CCCNC(=N)N)C(=O)N[C@H](CC(N)=O)C(=O)N[C@H](Cc1ccccc1)C(=O)N[C@H](CCSC)C(=O)N[C@H](CCCNC(=N)N)C(N)=O)C(C)C [Peptide 236, Lauryl-asrwrdvarnfmr-NH2] (Lauroyl-[dA][dS][dR][dW][dR][dD][dV][dA][dR][dN][dF][dM][dR]-NH2)",>64 µg/mL,64 µg/mL,16 µg/mL,>64 µg/mL,32 µg/mL
"CCCCCC(=O)N[C@H](CCCNC(=N)N)C(=O)N[C@H](CO)C(=O)N[C@H](CCCNC(=N)N)C(=O)N[C@H](Cc1c[nH]c2ccccc12)C(=O)N[C@H](CCCNC(=N)N)C(=O)N[C@H](CC(=O)O)C(=O)N[C@@H](C(=O)N[C@H](C)C(=O)N[C@H](CCCNC(=N)N)C(=O)N[C@H](CC(N)=O)C(=O)N[C@H](Cc1ccccc1)C(=O)N[C@H](CC(C)C)C(=O)N[C@H](CCCNC(=N)N)C(N)=O)C(C)C [Peptide 188, Hexyl-rsrwrdvarnflr-NH2] (Hexanoyl-[dR][dS][dR][dW][dR][dD][dV][dA][dR][dN][dF][dL][dR]-NH2)",>64 µg/mL,64 µg/mL,16 µg/mL,>64 µg/mL,>64 µg/mL
"CCCCCCCCCCCC(=O)N[C@H](CCCNC(=N)N)C(=O)N[C@H](CO)C(=O)N[C@H](CCCNC(=N)N)C(=O)N[C@H](Cc1c[nH]c2ccccc12)C(=O)N[C@H](CCCNC(=N)N)C(=O)N[C@H](CC(=O)O)C(=O)N[C@@H](C(=O)N[C@H](C)C(=O)N[C@H](C)C(=O)N[C@H](CC(N)=O)C(=O)N[C@H](Cc1ccccc1)C(=O)N[C@H](CCSC)C(=O)N[C@H](CCCNC(=N)N)C(N)=O)C(C)C [Peptide 230, Lauryl-rsrwrdvaanfmr-NH2] (Lauroyl-[dR][dS][dR][dW][dR][dD][dV][dA][dA][dN][dF][dM][dR]-NH2)",>64 µg/mL,>64 µg/mL,4 µg/mL,>64 µg/mL,>64 µg/mL
"CCCCCC(=O)N[C@H](CCCNC(=N)N)C(=O)N[C@H](CO)C(=O)N[C@H](CCCNC(=N)N)C(=O)N[C@H](Cc1c[nH]c2ccccc12)C(=O)N[C@H](CCCNC(=N)N)C(=O)N[C@H](CC(=O)O)C(=O)N[C@@H](C(=O)N[C@H](C)C(=O)N[C@H](CCCNC(=N)N)C(=O)N[C@H](CC(N)=O)C(=O)N[C@H](Cc1ccccc1)C(=O)N[C@H](CCSC)C(=O)N[C@H](CCCNC(=N)N)C(N)=O)C(C)C [Peptide 206, Hexyl-rsrwrdvarnfmr-NH2] (Hexanoyl-[dR][dS][dR][dW][dR][dD][dV][dA][dR][dN][dF][dM][dR]-NH2)",>64 µg/mL,64 µg/mL,32 µg/mL,>64 µg/mL,>64 µg/mL
"CSCC[C@@H](NC(=O)[C@@H](Cc1ccccc1)NC(=O)[C@@H](CC(N)=O)NC(=O)[C@@H](CCCNC(=N)N)NC(=O)[C@@H](CO)NC(=O)[C@@H](Cc1c[nH]c2ccccc12)NC(=O)[C@@H](CC(=O)O)NC(=O)[C@@H](CCCNC(=N)N)NC(=O)[C@@H](Cc1c[nH]c2ccccc12)NC(=O)[C@@H](CCCNC(=N)N)NC(=O)[C@@H](CO)NC(=O)[C@@H](CCCNC(=N)N)NC(=O)CNC(=O)[C@H](NC(=O)[C@@H](CCCNC(=N)N)NC(=O)[C@@H](CO)NC(=O)[C@H](NC(=O)[C@@H](CCCNC(=N)N)NC(=O)[C@H](NC(C)=O)[C@H](C)O)C(C)C)[C@H](C)O)C(=O)N[C@H](CCCNC(=N)N)C(=O)N[C@H](C)C(=O)N[C@H](C)C(=O)N[C@@H](CCCCNC(C)=O)C(N)=O [Peptide 84, Ac-trvsrtgrsrwrdwsrnfmraaK(Ac)-NH2] (Ac-[dT][dR][dV][dS][dR][dT]G[dR][dS][dR][dW][dR][dD][dW][dS][dR][dN][dF][dM][dR][dA][dA]K(Ac)-NH2)",>64 µg/mL,>64 µg/mL,32 µg/mL,,
